Reference: US11331299B2, “Medicinal use of serrulatane diterpenes” (The University of Sydney, priority 2016, dated 2022)
Read-outs that look alike come from different tables or passages of the source.

System: 280 human cancer cell lines
Test: OncoPanel cell proliferation assay (10-day)
Assay type: cell-based
Settings: Homo sapiens; for GI50: read-out: Cell Count GI50; for IC50: read-out: Cell Count IC50; for EC50: read-out: Cell Count EC50
[1] = KHOS-240S, Soft Tissue - Osteosarcoma
[2] = ME-180, ME-180, Female GU - Ovary
[3] = MG-63, MG-63, Soft Tissue - Osteosarcoma
[4] = MHH-PREB-1, MHH-PREB-1, Leukemia
[5] = MIA PaCa-2, Mia PaCa-2, Pancreas
[6] = MS751, MS751, Female GU - Ovary
[7] = Malme-3M, MALME3M, Skin (Melanoma)

Structure (SMILES): CC(C)=CCC[C@@H]1C(O)Oc2c(C)cc(O)c3c2[C@H]1CC[C@H]3C (some centres unmarked) [Compound 2, 5,18-epoxyserrulat-14-en-8,18-diol]
- GI50 [1]: 4.58 µM
- IC50 [1]: 4.59 µM
- EC50 (KLE, Female GU - Uterus): 26.3 µM
- GI50 (KLE, Female GU - Uterus): 20.5 µM
- IC50 (KLE, Female GU - Uterus): 26.3 µM
- EC50 (KPL-1, KPL-1, Breast): 4.7 µM
- GI50 (KPL-1, KPL-1, Breast): 4.7 µM
- IC50 (KPL-1, KPL-1, Breast): 4.73 µM
- EC50 (KU812, KU812, Leukemia): 6.52 µM
- GI50 (KU812, KU812, Leukemia): 5.66 µM
- IC50 (KU812, KU812, Leukemia): 6.52 µM
- EC50 (L-428, L-428, Lymphoma): 8.87 µM
- GI50 (L-428, L-428, Lymphoma): 8.83 µM
- IC50 (L-428, L-428, Lymphoma): 8.87 µM
- EC50 (LNCaP, Prostate): 0.86 µM
- GI50 (LNCaP, Prostate): 0.28 µM
- IC50 (LNCaP, Prostate): 0.86 µM
- EC50 (LS-123, LS123, Colon): 6.57 µM
- GI50 (LS-123, LS123, Colon): 13.4 µM
- IC50 (LS-123, LS123, Colon): 18.4 µM
- EC50 (LS-411N, LS411N, Colon): 23.9 µM
- GI50 (LS-411N, LS411N, Colon): 23.4 µM
- IC50 (LS-411N, LS411N, Colon): 23.9 µM
- EC50 (LS-1034, LS1034, Colon): 12.7 µM
- GI50 (LS-1034, LS1034, Colon): 12 µM
- IC50 (LS-1034, LS1034, Colon): 12.7 µM
- EC50 (M059J, CNS - Glioma): 9.98 µM
- GI50 (M059J, CNS - Glioma): 14.2 µM
- IC50 (M059J, CNS - Glioma): 15.8 µM
- EC50 (MC116, MC116, Lymphoma): 13.8 µM
- GI50 (MC116, MC116, Lymphoma): 13.8 µM
- IC50 (MC116, MC116, Lymphoma): 13.8 µM
- EC50 (MC-IXC, CNS - Neuroblastoma): 16.9 µM
- GI50 (MC-IXC, CNS - Neuroblastoma): 16.9 µM
- IC50 (MC-IXC, CNS - Neuroblastoma): 16.9 µM
- EC50 (MCF7, MCF7, Breast): 10.4 µM
- GI50 (MCF7, MCF7, Breast): 9.96 µM
- IC50 (MCF7, MCF7, Breast): 10.4 µM
- EC50 (MDA-MB-231, MDA MB 231, Breast): 4.39 µM
- GI50 (MDA-MB-231, MDA MB 231, Breast): 4.36 µM
- IC50 (MDA-MB-231, MDA MB 231, Breast): 4.39 µM
- EC50 (MDA-MB-436, MDA-MB-436, Breast): 9.72 µM
- GI50 (MDA-MB-436, MDA-MB-436, Breast): 9.73 µM
- IC50 (MDA-MB-436, MDA-MB-436, Breast): 9.77 µM
- EC50 (MDA-MB-453, MDA MB 453, Breast): 3.68 µM
- GI50 (MDA-MB-453, MDA MB 453, Breast): 3.65 µM
- IC50 (MDA-MB-453, MDA MB 453, Breast): 3.69 µM
- EC50 (MDA-MB-468, MDA MB 468, Breast): 8.07 µM
- GI50 (MDA-MB-468, MDA MB 468, Breast): 8 µM
- IC50 (MDA-MB-468, MDA MB 468, Breast): 8.08 µM
- EC50 [2]: > 30 µM
- GI50 [2]: > 30 µM
- IC50 [2]: > 30 µM
- EC50 (MEG-01, MEG01, Leukemia): 13.8 µM
- GI50 (MEG-01, MEG01, Leukemia): 13.7 µM
- IC50 (MEG-01, MEG01, Leukemia): 13.8 µM
- EC50 (MES-SA, Soft Tissue - Sarcoma): 9.26 µM
- GI50 (MES-SA, Soft Tissue - Sarcoma): 9.22 µM
- IC50 (MES-SA, Soft Tissue - Sarcoma): 9.26 µM
- EC50 [3]: > 30 µM
- GI50 [3]: > 30 µM
- IC50 [3]: > 30 µM
- EC50 [4]: 7.85 µM
- GI50 [4]: 7.85 µM
- IC50 [4]: 7.85 µM
- EC50 [5]: 16.3 µM
- GI50 [5]: 16.2 µM
- IC50 [5]: 16.3 µM
- EC50 (MOLT-3, MOLT-3, Leukemia): 1.27 µM
- GI50 (MOLT-3, MOLT-3, Leukemia): 1.26 µM
- IC50 (MOLT-3, MOLT-3, Leukemia): 1.27 µM
- EC50 (MOLT-16, MOLT-16, Leukemia): 13.3 µM
- GI50 (MOLT-16, MOLT-16, Leukemia): 13.3 µM
- IC50 (MOLT-16, MOLT-16, Leukemia): 13.3 µM
- EC50 [6]: 7.55 µM
- GI50 [6]: 8.72 µM
- IC50 [6]: 8.78 µM
- EC50 (MT-3, Colon): 16.9 µM
- GI50 (MT-3, Colon): 16.8 µM
- IC50 (MT-3, Colon): 16.9 µM
- EC50 (MV4-11, MV-4-11, Leukemia): 8.56 µM
- GI50 (MV4-11, MV-4-11, Leukemia): 8.52 µM
- IC50 (MV4-11, MV-4-11, Leukemia): 8.56 µM
- EC50 (MX1, Leukemia): 10.8 µM
- GI50 (MX1, Leukemia): 10.8 µM
- IC50 (MX1, Leukemia): 10.8 µM
- EC50 [7]: 19.8 µM
- GI50 [7]: 17.3 µM
- IC50 [7]: 19.8 µM
- EC50 (MeWo, Skin (Melanoma)): 9.45 µM
- GI50 (MeWo, Skin (Melanoma)): 9.91 µM
- IC50 (MeWo, Skin (Melanoma)): 9.97 µM
- EC50 (NALM-6, NALM-6, Leukemia): 1.67 µM
- GI50 (NALM-6, NALM-6, Leukemia): 1.68 µM
- IC50 (NALM-6, NALM-6, Leukemia): 1.68 µM
- EC50 (NAMALWA, Lymphoma): 5.71 µM
- GI50 (NAMALWA, Lymphoma): 5.7 µM
- IC50 (NAMALWA, Lymphoma): 5.71 µM
- EC50 (NCI-H69, NCI-H69, Lung - SCLC): 16.2 µM
- GI50 (NCI-H69, NCI-H69, Lung - SCLC): 14.9 µM
- IC50 (NCI-H69, NCI-H69, Lung - SCLC): 16.2 µM
